Results published in ChEMBL document CHEMBL1201862, “PubChem BioAssay data set” (2004).
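Step 1: Grow cells in 96-well plates. Step 2: Expose to compound for 48 hours at 5 concentrations. Step 3: Interpolate endpoints linearly; if unreached, use highest concentration. The concentration for 50% growth inhibition is given as GI50.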 The source made the active and inactive calls. Cut-off read from the data, not from the text of the source: active = GI50 up to about 1.1 µM and inactive = higher.

What was measured:
Test in all cases: DTP human tumour cell line panel, 48 h
SW-620 = tested on: SW-620
SNB-19 = tested on: SNB-19
SNB-75 = tested on: SNB-75
PC-3 = tested on: PC-3
RXF 393 = tested on: RXF 393
HT-29 = tested on: HT-29
RPMI-8226 = tested on: RPMI-8226
LOX IMVI = tested on: LOX IMVI
Malme-3M = tested on: Malme-3M
OVCAR-3 = tested on: OVCAR-3
TK-10 = tested on: TK-10
NCI-H460 = tested on: NCI-H460
NCI-H226 = tested on: NCI-H226
SF-295 = tested on: SF-295
UACC-62 = tested on: UACC-62
MCF7 = tested on: MCF7
SK-MEL-2 = tested on: SK-MEL-2
MDA-N = tested on: MDA-N
SK-MEL-5 = tested on: SK-MEL-5
U-251 = tested on: U-251
MOLT-4 = tested on: MOLT-4
786-0 = tested on: 786-0
OVCAR-5 = tested on: OVCAR-5
MDA-MB-231 = tested on: MDA-MB-231
M14 = tested on: M14
CCRF-CEM = tested on: CCRF-CEM
HCT-15 = tested on: HCT-15
OVCAR-8 = tested on: OVCAR-8
MDA-MB-435 = tested on: MDA-MB-435
SF-268 = tested on: SF-268
HCT-116 = tested on: HCT-116
EKVX = tested on: EKVX
KM12 = tested on: KM12
NCI-H23 = tested on: NCI-H23
K562 = tested on: K562
SR = tested on: SR
DU-145 = tested on: DU-145
SF-539 = tested on: SF-539
NCI/ADR-RES = tested on: NCI/ADR-RES
Hs-578T = tested on: Hs-578T
CAKI-1 = tested on: CAKI-1
A498 = tested on: A498
COLO 205 = tested on: COLO 205
ACHN = tested on: ACHN
SK-OV-3 = tested on: SK-OV-3
IGROV-1 = tested on: IGROV-1
HOP-62 = tested on: HOP-62
SK-MEL-28 = tested on: SK-MEL-28
UACC-257 = tested on: UACC-257
BT-549 = tested on: BT-549
SN12C = tested on: SN12C
HL-60 = tested on: HL-60
HOP-92 = tested on: HOP-92
T47D = tested on: T47D
HCC 2998 = tested on: HCC 2998
OVCAR-4 = tested on: OVCAR-4
UO-31 = tested on: UO-31
NCI-H522 = tested on: NCI-H522
A549 = tested on: A549

Cn1c(=O)oc2cc(C(=S)N3CCC(Cc4ccccc4)CC3)ccc21
GI50 (SW-620): > 100 µM (inactive) | GI50 (SNB-19): > 100 µM (inactive) | GI50 (SNB-75): 55.6 µM (inactive) | GI50 (PC-3): > 100 µM (inactive) | GI50 (RXF 393): > 100 µM (inactive) | GI50 (HT-29): > 100 µM (inactive) | GI50 (RPMI-8226): 62.1 µM (inactive) | GI50 (LOX IMVI): > 100 µM (inactive) | GI50 (Malme-3M): > 100 µM (inactive) | GI50 (OVCAR-3): > 100 µM (inactive) | GI50 (TK-10): > 100 µM (inactive) | GI50 (NCI-H460): > 100 µM (inactive) | GI50 (NCI-H226): > 100 µM (inactive) | GI50 (SF-295): > 100 µM (inactive) | GI50 (UACC-62): > 100 µM (inactive) | GI50 (MCF7): > 100 µM (inactive) | GI50 (SK-MEL-2): > 100 µM (inactive) | GI50 (MDA-N): > 100 µM (inactive) | GI50 (SK-MEL-5): 51.4 µM (inactive) | GI50 (U-251): 64.7 µM (inactive) | GI50 (MOLT-4): 48.1 µM (inactive) | GI50 (786-0): > 100 µM (inactive) | GI50 (OVCAR-5): > 100 µM (inactive) | GI50 (MDA-MB-231): > 100 µM (inactive) | GI50 (M14): > 100 µM (inactive) | GI50 (CCRF-CEM): > 100 µM (inactive) | GI50 (HCT-15): > 100 µM | GI50 (OVCAR-8): > 100 µM (inactive) | GI50 (MDA-MB-435): 91.8 µM (inactive) | GI50 (SF-268): > 100 µM (inactive) | GI50 (HCT-116): > 100 µM (inactive) | GI50 (EKVX): > 100 µM (inactive) | GI50 (KM12): > 100 µM (inactive) | GI50 (NCI-H23): > 100 µM (inactive) | GI50 (K562): 61.7 µM (inactive) | GI50 (SR): 72.3 µM (inactive) | GI50 (DU-145): > 100 µM (inactive) | GI50 (SF-539): > 100 µM (inactive) | GI50 (NCI/ADR-RES): > 100 µM (inactive) | GI50 (Hs-578T): > 100 µM (inactive) | GI50 (CAKI-1): > 100 µM (inactive) | GI50 (A498): > 100 µM (inactive) | GI50 (COLO 205): > 100 µM (inactive) | GI50 (ACHN): > 100 µM (inactive) | GI50 (SK-OV-3): > 100 µM (inactive) | GI50 (IGROV-1): > 100 µM (inactive) | GI50 (HOP-62): > 100 µM (inactive) | GI50 (SK-MEL-28): > 100 µM (inactive) | GI50 (UACC-257): > 100 µM (inactive) | GI50 (BT-549): > 100 µM (inactive) | GI50 (SN12C): > 100 µM (inactive) | GI50 (HL-60): > 100 µM (inactive)

CCCCC/C(C=O)=C\c1ccccc1
GI50 (SW-620): > 100 µM (inactive) | GI50 (SNB-19): > 100 µM (inactive) | GI50 (HOP-92): > 100 µM (inactive) | GI50 (SNB-75): > 100 µM (inactive) | GI50 (PC-3): > 100 µM (inactive) | GI50 (RXF 393): > 100 µM (inactive) | GI50 (HT-29): > 100 µM (inactive) | GI50 (RPMI-8226): > 100 µM (inactive) | GI50 (LOX IMVI): > 100 µM (inactive) | GI50 (TK-10): > 100 µM (inactive) | GI50 (NCI-H460): > 100 µM (inactive) | GI50 (NCI-H226): > 100 µM (inactive) | GI50 (SF-295): > 100 µM (inactive) | GI50 (UACC-62): > 100 µM (inactive) | GI50 (MCF7): > 100 µM (inactive) | GI50 (T47D): > 100 µM (inactive) | GI50 (SK-MEL-2): > 100 µM (inactive) | GI50 (SK-MEL-5): > 100 µM (inactive) | GI50 (U-251): > 100 µM (inactive) | GI50 (MOLT-4): 65.8 µM (inactive) | GI50 (786-0): > 100 µM (inactive) | GI50 (MDA-MB-231): > 100 µM (inactive) | GI50 (M14): > 100 µM (inactive) | GI50 (CCRF-CEM): 80.4 µM (inactive) | GI50 (HCT-15): > 100 µM | GI50 (OVCAR-8): > 100 µM (inactive) | GI50 (HCC 2998): > 100 µM (inactive) | GI50 (MDA-MB-435): > 100 µM (inactive) | GI50 (SF-268): > 100 µM (inactive) | GI50 (HCT-116): > 100 µM (inactive) | GI50 (EKVX): > 100 µM (inactive) | GI50 (KM12): > 100 µM (inactive) | GI50 (NCI-H23): > 100 µM (inactive) | GI50 (K562): 20.3 µM (inactive) | GI50 (SR): > 100 µM (inactive) | GI50 (DU-145): > 100 µM (inactive) | GI50 (SF-539): > 100 µM (inactive) | GI50 (NCI/ADR-RES): > 100 µM (inactive) | GI50 (Hs-578T): > 100 µM (inactive) | GI50 (OVCAR-4): > 100 µM (inactive) | GI50 (CAKI-1): > 100 µM (inactive) | GI50 (A498): > 100 µM (inactive) | GI50 (COLO 205): > 100 µM (inactive) | GI50 (ACHN): > 100 µM (inactive) | GI50 (SK-OV-3): > 100 µM (inactive) | GI50 (UO-31): > 100 µM (inactive) | GI50 (IGROV-1): > 100 µM (inactive) | GI50 (HOP-62): > 100 µM (inactive) | GI50 (SK-MEL-28): > 100 µM (inactive) | GI50 (UACC-257): > 100 µM (inactive) | GI50 (BT-549): > 100 µM (inactive) | GI50 (HL-60): > 100 µM (inactive)

Cc1ccc(NC(=O)/C(Cc2nc3ccc([N+](=O)[O-])cc3nc2O)=N\NC(=O)C[n+]2ccccc2)c(C)c1
GI50 (SW-620): 61.1 µM (inactive) | GI50 (SNB-19): 83.4 µM (inactive) | GI50 (HOP-92): 37.5 µM (inactive) | GI50 (SNB-75): 97.3 µM (inactive) | GI50 (PC-3): 39 µM (inactive) | GI50 (RXF 393): 4.06 µM (inactive) | GI50 (HT-29): > 100 µM (inactive) | GI50 (LOX IMVI): 59 µM (inactive) | GI50 (OVCAR-3): 23.1 µM (inactive) | GI50 (TK-10): 21.2 µM (inactive) | GI50 (NCI-H460): 26.8 µM (inactive) | GI50 (NCI-H226): 74.6 µM (inactive) | GI50 (SF-295): 58.1 µM (inactive) | GI50 (UACC-62): 55.1 µM (inactive) | GI50 (MCF7): 38.5 µM (inactive) | GI50 (NCI-H522): 19.4 µM (inactive) | GI50 (SK-MEL-2): 39.9 µM (inactive) | GI50 (MDA-N): > 100 µM (inactive) | GI50 (SK-MEL-5): 16.9 µM (inactive) | GI50 (U-251): 53.6 µM (inactive) | GI50 (MOLT-4): 30.7 µM (inactive) | GI50 (786-0): 27.9 µM (inactive) | GI50 (OVCAR-5): > 100 µM (inactive) | GI50 (MDA-MB-231): 18.4 µM (inactive) | GI50 (M14): 89.1 µM (inactive) | GI50 (CCRF-CEM): 26.6 µM (inactive) | GI50 (HCT-15): 49.4 µM | GI50 (OVCAR-8): 30.3 µM (inactive) | GI50 (HCC 2998): > 100 µM (inactive) | GI50 (MDA-MB-435): 97.3 µM (inactive) | GI50 (SF-268): 67.5 µM (inactive) | GI50 (HCT-116): 36.2 µM (inactive) | GI50 (EKVX): 26.7 µM (inactive) | GI50 (KM12): 74.6 µM (inactive) | GI50 (NCI-H23): 65.6 µM (inactive) | GI50 (DU-145): 32.1 µM (inactive) | GI50 (SF-539): 77.1 µM (inactive) | GI50 (NCI/ADR-RES): 40.9 µM (inactive) | GI50 (Hs-578T): 86.1 µM (inactive) | GI50 (OVCAR-4): 23 µM (inactive) | GI50 (CAKI-1): 34.7 µM (inactive) | GI50 (COLO 205): 43.5 µM (inactive) | GI50 (A549): 23.3 µM (inactive) | GI50 (ACHN): 20.5 µM (inactive) | GI50 (SK-OV-3): 22.4 µM (inactive) | GI50 (UO-31): 18.4 µM (inactive) | GI50 (IGROV-1): 35.4 µM (inactive) | GI50 (HOP-62): 38.9 µM (inactive) | GI50 (SK-MEL-28): 77.4 µM (inactive) | GI50 (UACC-257): 49.4 µM (inactive) | GI50 (BT-549): > 100 µM (inactive) | GI50 (SN12C): 32.1 µM (inactive) | GI50 (HL-60): 30 µM (inactive)
